Laboratory results as given in patent US11944622B2 (Annapurna Bio, Inc., priority 2018, dated 2024).

Molecular target: T1, APJ Receptor (Homo sapiens, UniProt P35414)
T1 sequence (P35414 1-380): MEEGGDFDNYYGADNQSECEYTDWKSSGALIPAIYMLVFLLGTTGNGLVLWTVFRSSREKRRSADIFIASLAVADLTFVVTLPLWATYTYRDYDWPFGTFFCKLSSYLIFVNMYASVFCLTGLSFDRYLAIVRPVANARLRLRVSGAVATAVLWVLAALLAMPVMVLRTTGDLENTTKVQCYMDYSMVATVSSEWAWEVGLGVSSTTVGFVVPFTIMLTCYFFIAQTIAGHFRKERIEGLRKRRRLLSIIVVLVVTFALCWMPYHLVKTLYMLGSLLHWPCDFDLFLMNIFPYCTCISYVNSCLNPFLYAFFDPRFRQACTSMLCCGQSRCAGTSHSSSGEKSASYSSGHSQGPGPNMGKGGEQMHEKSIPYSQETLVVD
Assay: APJ cAMP assay (DiscoverX enzyme fragment complementation; inhibition of forskolin-stimulated cAMP)
Assay type: cell-based
Details: CHO-K1 cell line stably expressing the APJ Receptor; EC80 forskolin; 30 minutes at 37° C.; read-out: Potency Range (APJ cAMP EC50)
Source text: Activation of APJ receptor is known to inhibit forskolin-stimulated cyclic AMP (cAMP) production in cells in a pertussis toxin-sensitive manner which indicates primary coupling to the GαI subunit of the G protein heterotrimeric complex. In addition to signaling through G protein and inhibition of cAMP, APJ receptor activation also results in β-arrestin recruitment, receptor internalization and activation of extracellular-regulated kinases (ERKs).
In order to optimize functional activity directed toward Gi coupling we utilized a CHO-K 1 cell line developed by DiscoverX stably expressing the APJ Receptor. Cells expressing APJR receptor were plated in a 384-well microtiter plates and incubated overnight at 37° C. with 5% CO2 to allow the cells to attach and grow. Media was then aspirated from the cells and replaced with 15 uL 2:1 Hanks Balanced Salt Solution (HBSS)/10 mM Hepes:cAMP XS+Ab reagent. Five microliters (5 uL) of previously generated compound sample stocks at 4× final concentration in assay buffer containing 4× EC80 forskolin were then added to the cells and allowed to incubate at 37° C. for 30 minutes.
After incubation the assay signal was generated using a technology termed enzyme fragment complementation (EFC). In EFC the enzyme B-galactosidase is split into two complementary portions (EA and ED). The fragment ED is fused to cAMP and in the assay format competes with endogenous cAMP for binding to a cAMP specific antibody. Activated B-Gal is formed when exogenous EA fragment binds to free ED-cAMP (not bound to cAMP specific antibody). Activated enzyme levels are detected through conversion of B-gal chemiluminescent substrate which generates a detectable luminescence signal and read on standard microtiter plate.
The methodology for detection of cAMP using EFC requires incubation with 20 uL of cAMP XS+ED/CL lysis cocktail for one hour followed by incubation with 20 uL cAMP XS+EA reagent for three hours at room temperature. Microplates were read following signal generation with a PerkinElmer Envision instrument utilizing chemiluminescent signal detection.
Compound activity was analyzed using CBIS data analysis suite (ChemInnovation, CA). Percentage activity was calculated using the following formula: % Activity=100%×(1−(mean RLU of test sample−mean RLU of Max control)/(mean RLU of vehicle control−mean RLU of Max control))

| EC50 [nM] | Structure (SMILES) |
| --- | --- |
| 1 to 100 | CCOc1cccc(-c2nc3ncc(NS(C)(=O)=O)nc3n2-c2c(OC)ccnc2OC)n1 (atropisomer, axis not shown) [Example 84, N-(1-(2,4-Dimethoxypyridin-3-yl)-2-(6-ethoxypyridin-2-yl)-1H-imidazo[4,5-b]pyrazin-6-yl)methanesulfonamide] |
| 100 to 10000 | CCOc1cccc(-c2nc3ncc(NS(C)(=O)=O)nc3n2-c2c(OC)ccnc2OC)n1 (atropisomer, axis not shown) [Example 85, N-(1-(2,4-Dimethoxypyridin-3-yl)-2-(6-ethoxypyridin-2-yl)-1H-imidazo[4,5-b]pyrazin-6-yl)methanesulfonamide] |
| 100 to 10000 | CCOc1cccc(-c2nc3ncc(Br)nc3n2-c2c(OC)cccc2OC)n1 [Example 1, 6-bromo-1-(2,6-dimethoxyphenyl)-2-(6-ethoxypyridin-2-yl)-1H-imidazo[4,5-b]pyrazine] |
| 1 to 100 | CCOc1cccc(-c2nc3ncc(NS(C)(=O)=O)nc3n2-c2c(OC)cccc2OC)n1 [Example 2, N-(1-(2,6-dimethoxyphenyl)-2-(6-ethoxypyridin-2-yl)-1H-imidazo[4,5-b]pyrazin-6-yl)methanesulfonamide] |
| 1 to 100 | CCOc1cccc(-c2nc3ncc(NS(=O)(=O)Cc4ccccc4)nc3n2-c2c(OC)cccc2OC)n1 [Example 3, N-(1-(2,6-dimethoxyphenyl)-2-(6-ethoxypyridin-2-yl)-1H-imidazo[4,5-b]pyrazin-6-yl)-1-phenylmethanesulfonamide] |
| 1 to 100 | CCOc1cccc(-c2nc3ncc(NS(=O)(=O)CC4CC4)nc3n2-c2c(OC)cccc2OC)n1 [Example 4, 1-cyclopropyl-N-(1-(2,6-dimethoxyphenyl)-2-(6-ethoxypyridin-2-yl)-1H-imidazo[4,5-b]pyrazin-6-yl)methanesulfonamide] |
| < 1 | CCOc1cccc(-c2nc3ncc(NS(=O)(=O)c4ccccc4)nc3n2-c2c(OC)cccc2OC)n1 [Example 5, N-(1-(2,6-dimethoxyphenyl)-2-(6-ethoxypyridin-2-yl)-1H-imidazo[4,5-b]pyrazin-6-yl)benzenesulfonamide] |
| 100 to 10000 | CCOc1cccc(-c2nc3ncc(C#Cc4ccccc4)nc3n2-c2c(OC)cccc2OC)n1 [Example 6, 1-(2,6-dimethoxyphenyl)-2-(6-ethoxypyridin-2-yl)-6-(phenylethynyl)-1H-imidazo[4,5-b]pyrazine] |
| 1 to 100 | CCOc1cccc(-c2nc3ncc(CCc4ccccc4)nc3n2-c2c(OC)cccc2OC)n1 [Example 7, 1-(2,6-dimethoxyphenyl)-2-(6-ethoxypyridin-2-yl)-6-phenethyl-1H-imidazo[4,5-b]pyrazine] |
| 100 to 10000 | CCOc1cccc(-c2nc3ncc(C(=O)NCc4ccccc4)nc3n2-c2c(OC)cccc2OC)n1 [Example 8, N-Benzyl-1-(2,6-dimethoxyphenyl)-2-(6-ethoxypyridin-2-yl)-1H-imidazo[4,5-b]pyrazine-6-carboxamide] |
| 1 to 100 | CCOc1cccc(-c2nc3ncc(NC)nc3n2-c2c(OC)cccc2OC)n1 [Example 9, 1-(2,6-dimethoxyphenyl)-2-(6-ethoxypyridin-2-yl)-N-methyl-1H-imidazo[4,5-b]pyrazin-6-amine] |
| 1 to 100 | CCOc1cccc(-c2nc3ncc(N)nc3n2-c2c(OC)cccc2OC)n1 [Example 10, 1-(2,6-dimethoxyphenyl)-2-(6-ethoxypyridin-2-yl)-1H-imidazo[4,5-b]pyrazin-6-amine] |
| 1 to 100 | CCOc1cccc(-c2nc3ncc(N(Cc4ccccc4)Cc4ccccc4)nc3n2-c2c(OC)cccc2OC)n1 [Example 11, N,N-dibenzyl-1-(2,6-dimethoxyphenyl)-2-(6-ethoxypyridin-2-yl)-1H-imidazo[4,5-b]pyrazin-6-amine] |
| 100 to 10000 | CCOc1cccc(-c2nc3ncc(N(C)C)nc3n2-c2c(OC)cccc2OC)n1 [Example 12, 1-(2,6-dimethoxyphenyl)-2-(6-ethoxypyridin-2-yl)-N,N-dimethyl-1H-imidazo[4,5-b]pyrazin-6-amine] |
| 1 to 100 | CCOc1cccc(-c2nc3ncc(NCc4ccccc4)nc3n2-c2c(OC)cccc2OC)n1 [Example 13, N-benzyl-1-(2,6-dimethoxyphenyl)-2-(6-ethoxypyridin-2-yl)-1H-imidazo[4,5-b]pyrazin-6-amine] |
| 1 to 100 | CCOc1cccc(-c2nc3ncc(NC(=O)Cc4ccccc4)nc3n2-c2c(OC)cccc2OC)n1 [Example 14, N-(1-(2,6-dimethoxyphenyl)-2-(6-ethoxypyridin-2-yl)-1H-imidazo[4,5-b]pyrazin-6-yl)-2-phenylacetamide] |
| 100 to 10000 | CCOc1cccc(-c2nc3nc(Cl)cnc3n2-c2c(OC)cccc2OC)n1 [Example 15, 5-chloro-1-(2,6-dimethoxyphenyl)-2-(6-ethoxypyridin-2-yl)-1H-imidazo[4,5-b]pyrazine] |
| 1 to 100 | CCOc1cccc(-c2nc3nc(N)cnc3n2-c2c(OC)cccc2OC)n1 [Example 16, 1-(2,6-dimethoxyphenyl)-2-(6-ethoxypyridin-2-yl)-1H-imidazo[4,5-b]pyrazin-5-amine] |
| 1 to 100 | CCOc1cccc(-c2nc3nc(NC(=O)Cc4ccccc4)cnc3n2-c2c(OC)cccc2OC)n1 [Example 17, N-(1-(2,6-dimethoxyphenyl)-2-(6-ethoxypyridin-2-yl)-1H-imidazo[4,5-b]pyrazin-5-yl)-2-phenylacetamide] |
| 100 to 10000 | CCOc1cccc(-c2nc3nccnc3n2-c2c(OC)cccc2OC)n1 [Example 18, 1-(2,6-dimethoxyphenyl)-2-(6-ethoxypyridin-2-yl)-1H-imidazo[4,5-b]pyrazine] |
| 100 to 10000 | CCOc1cccc(-c2cc3ncc(NS(C)(=O)=O)nc3n2-c2c(OC)cccc2OC)n1 [Example 19, N-(5-(2,6-dimethoxyphenyl)-6-(6-ethoxypyridin-2-yl)-5H-pyrrolo[2,3-b]pyrazin-3-yl)methanesulfonamide] |
| 1 to 100 | CCOc1cccc(-c2nc3ncc(NS(C)(=O)=O)cc3n2-c2c(OC)cccc2OC)n1 [Example 20, N-(1-(2,6-dimethoxyphenyl)-2-(6-ethoxypyridin-2-yl)-1H-imidazo[4,5-b]pyridin-6-yl)methanesulfonamide] |
| 1 to 100 | CCOc1cccc(-c2nc3nnc(NS(C)(=O)=O)cc3n2-c2c(OC)cccc2OC)n1 [Example 21, N-(5-(2,6-dimethoxyphenyl)-6-(6-ethoxypyridin-2-yl)-5H-imidazo[4,5-c]pyridazin-3-yl)methanesulfonamide] |
| 1 to 100 | CCOc1cccc(-c2nc3ncc(NS(=O)(=O)C4CC4)nc3n2-c2c(OC)cccc2OC)n1 [Example 22, N-(1-(2,6-dimethoxyphenyl)-2-(6-ethoxypyridin-2-yl)-1H-imidazo[4,5-b]pyrazin-6-yl)cyclopropanesulfonamide] |
| < 1 | CCOc1cccc(-c2nc3ncc(NS(=O)(=O)c4ccccn4)nc3n2-c2c(OC)cccc2OC)n1 [Example 23, N-(1-(2,6-dimethoxyphenyl)-2-(6-ethoxypyridin-2-yl)-1H-imidazo[4,5-b]pyrazin-6-yl)pyridine-2-sulfonamide] |
| 1 to 100 | CCOc1cccc(-c2nc3ncc(NS(=O)(=O)c4cccnc4)nc3n2-c2c(OC)cccc2OC)n1 [Example 24, N-(1-(2,6-dimethoxyphenyl)-2-(6-ethoxypyridin-2-yl)-1H-imidazo[4,5-b]pyrazin-6-yl)pyridine-3-sulfonamide] |
| 1 to 100 | CCOc1cccc(-c2nc3ncc(NS(=O)(=O)c4ccncc4)nc3n2-c2c(OC)cccc2OC)n1 [Example 25, N-(1-(2,6-dimethoxyphenyl)-2-(6-ethoxypyridin-2-yl)-1H-imidazo[4,5-b]pyrazin-6-yl)pyridine-4-sulfonamide] |
| 1 to 100 | CCOc1cccc(-c2nc3ncc(NS(=O)(=O)Cc4cccnc4)nc3n2-c2c(OC)cccc2OC)n1 [Example 26, N-(1-(2,6-dimethoxyphenyl)-2-(6-ethoxypyridin-2-yl)-1H-imidazo[4,5-b]pyrazin-6-yl)-1-(pyridin-3-yl)methanesulfonamide] |
| 1 to 100 | CCOc1cccc(-c2nc3ncc(NS(=O)(=O)Cc4ccccn4)nc3n2-c2c(OC)cccc2OC)n1 [Example 27, N-(1-(2,6-dimethoxyphenyl)-2-(6-ethoxypyridin-2-yl)-1H-imidazo[4,5-b]pyrazin-6-yl)-1-(pyridin-2-yl)methanesulfonamide] |
